Starred links: 1 amine or outer side, 2 acyl side, 3 side chain; linkers in the order of their positions; H or OH if unused. Positions of bridges follow the written chain, without caps; N, C: chain ends. Residues, ends and D or L forms follow the SMILES beside them. *: point of attachment. C20 diacid = O=C(O)CCCCCCCCCCCCCCCCCCC(=O)*; γGlu = O=C(O)[C@H](CCC(=O)[*:2])N[*:1]
Experiments:
[1] = target: T1, human amylin receptor (amylin 3(a) receptor: human calcitonin receptor + RAMP-3) (Homo sapiens, UniProt O60896+P30988); assay: Assay (II)a functional CRE-luciferase assay, human amylin receptor; assay type: cell-based; conditions: Table 2; BHK amylin 3(a)-receptor/CRE-luc cells
T1 construct: expressed in transfected cells; host or cells: BHK570
T1 sequence (P30988 25-474): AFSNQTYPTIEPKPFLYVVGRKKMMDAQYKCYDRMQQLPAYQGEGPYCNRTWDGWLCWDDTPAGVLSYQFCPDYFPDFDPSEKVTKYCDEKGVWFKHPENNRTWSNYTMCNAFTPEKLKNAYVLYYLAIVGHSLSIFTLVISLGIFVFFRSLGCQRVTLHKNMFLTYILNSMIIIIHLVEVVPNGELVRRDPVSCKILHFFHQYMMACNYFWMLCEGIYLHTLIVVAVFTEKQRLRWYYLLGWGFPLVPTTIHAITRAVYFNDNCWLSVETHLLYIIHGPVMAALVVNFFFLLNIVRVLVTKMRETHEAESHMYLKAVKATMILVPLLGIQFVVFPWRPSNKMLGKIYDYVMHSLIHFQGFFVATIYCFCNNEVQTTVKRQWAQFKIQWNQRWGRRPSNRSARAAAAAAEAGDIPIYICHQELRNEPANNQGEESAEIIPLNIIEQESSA
T1 sequence (O60896 24-148 partner): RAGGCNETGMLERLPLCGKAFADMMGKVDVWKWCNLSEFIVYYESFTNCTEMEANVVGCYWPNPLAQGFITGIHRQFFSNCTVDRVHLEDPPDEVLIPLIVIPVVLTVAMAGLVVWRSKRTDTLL

[2] = target: T2, human calcitonin receptor (Homo sapiens, UniProt P30988); assay: Assay (II)a functional CRE-luciferase assay, human calcitonin receptor; assay type: cell-based; conditions: Table 7; human calcitonin (CTa) receptor
T2 construct: expressed in transfected cells; host or cells: BHK570
T2 sequence (P30988 25-474): T1 sequence (P30988 25-474)

| Structure (SMILES) | EC50 [1] [pM] | EC50 [2] [pM] |
| --- | --- | --- |
| CC[C@H](C)[C@H](NC(=O)[C@H](CCC(=O)O)NC(=O)CNC(=O)[C@H](Cc1ccccc1)NC(=O)[C@H](CC(N)=O)NC(=O)[C@H](CC(N)=O)NC(=O)[C@H](CO)NC(=O)[C@H](CO)NC(=O)[C@H](CCCNC(=N)N)NC(=O)[C@H](Cc1c[nH]cn1)NC(=O)[C@H](CC(C)C)NC(=O)[C@H](Cc1ccccc1)NC(=O)[C@H](CCC(=O)O)NC(=O)[C@H](C)NC(=O)[C@H](CC(C)C)NC(=O)[C@H](CCCNC(=N)N)NC(=O)[C@H](CCC(N)=O)NC(=O)[C@@H](NC(=O)[C@H](C)NC(=O)[C@@H]1CSSC[C@H](NC(=O)[C@H](Cc2c[nH]cn2)NC(=O)CC[C@H](NC(=O)CCCCCCCCCCCCCCCCCCC(=O)O)C(=O)O)C(=O)N[C@@H](CC(N)=O)C(=O)N[C@@H]([C@@H](C)O)C(=O)N[C@@H](C)C(=O)N[C@@H]([C@@H](C)O)C(=O)N1)[C@@H](C)O)C(=O)N[C@@H](CC(C)C)C(=O)N[C@@H](CO)C(=O)N[C@@H](CCCNC(=N)N)C(=O)N[C@H](C(=O)N[C@@H](CC(N)=O)C(=O)N[C@H](C(=O)NCC(=O)N[C@@H](CO)C(=O)N[C@@H](CC(N)=O)C(=O)N[C@H](C(=O)N[C@@H](Cc1ccc(O)cc1)C(N)=O)[C@@H](C)O)C(C)C)[C@@H](C)O [Example 7, N-alpha-[(S)-4-Carboxy-4-(19-carboxynonadecanoylamino)butyryl]-[His1,Glu14,His17,Arg18,Glu25,Ser28,Arg29]-pramlintide] ({C20 diacid-γGlu}-HCNTATCATQRLAEFLHRSSNNFGEILSRTNVGSNTY-NH2; disulfide 2-7 (inferred); C-terminus assumed) | 77.9 | 131 |
| CC[C@H](C)[C@H](NC(=O)[C@@H]1CCCN1C(=O)CNC(=O)[C@H](Cc1ccccc1)NC(=O)[C@H](CC(N)=O)NC(=O)[C@H](CC(N)=O)NC(=O)[C@H](CO)NC(=O)[C@H](CO)NC(=O)[C@H](Cc1c[nH]cn1)NC(=O)[C@H](CCCNC(=N)N)NC(=O)[C@H](CC(C)C)NC(=O)[C@H](Cc1ccccc1)NC(=O)[C@H](CCC(=O)O)NC(=O)[C@H](C)NC(=O)[C@H](CC(C)C)NC(=O)[C@H](CCCNC(=N)N)NC(=O)[C@H](CCC(N)=O)NC(=O)[C@@H](NC(=O)[C@H](C)NC(=O)[C@@H]1CSSC[C@H](NC(=O)[C@H](CCCCN)NC(=O)CC[C@H](NC(=O)CCCCCCCCCCCCCCCCCCC(=O)O)C(=O)O)C(=O)N[C@@H](CC(N)=O)C(=O)N[C@@H]([C@@H](C)O)C(=O)N[C@@H](C)C(=O)N[C@@H]([C@@H](C)O)C(=O)N1)[C@@H](C)O)C(=O)N[C@@H](CC(C)C)C(=O)N1CCC[C@H]1C(=O)N1CCC[C@H]1C(=O)N[C@H](C(=O)N[C@@H](CC(N)=O)C(=O)N[C@H](C(=O)NCC(=O)N[C@@H](CO)C(=O)N[C@@H](CC(N)=O)C(=O)N[C@H](C(=O)N[C@@H](Cc1ccc(O)cc1)C(N)=O)[C@@H](C)O)C(C)C)[C@@H](C)O [Example 50, N-alpha-[(S)-4-Carboxy-4-(19-carboxynonadecanoylamino)butyryl]-[Glu14,Arg17]-pramlintide] ({C20 diacid-γGlu}-KCNTATCATQRLAEFLRHSSNNFGPILPPTNVGSNTY-NH2; disulfide 2-7 (inferred)) | 101 | 458 |

Source: patent US8722849B2, “Polypeptides” (Novo Nordisk A/S, priority 2011, dated 2014)
